Measured values reported in US4156724A, “N-acylamino-alpha-arylacetamido cephalosporins and antibacterial compositions and methods containing them” (Sumitomo Chemical Company, Limited, priority 1974, dated 1979).
Values after ≈ are worked out from the molar mass of the structure shown. Read-outs that look alike come from different tables or passages of the source.

Legend:
Format in all cases: cell-based
[1] = tested on: Staphylococcus aureus 209 P; experiment: Minimum Inhibitory Concentration, Staphylococcus aureus 209 P; settings: Staphylococcus aureus 209 P; read-out: Minimum Inhibitory Concentration
Description: (§1) anti-microbial activity tests were carried out on the compounds obtained in the Examples.

[2] = tested on: Staphylococcus aureus FS 289; experiment: Minimum Inhibitory Concentration, Staphylococcus aureus FS 289; settings: FS289; Staphylococcus aureus FS 289, strain resistant to penicillin; read-out: Minimum Inhibitory Concentration
Description: as §1
*Staphylococcus aureus FS 289: strain resistant to penicillin

Escherichia coli NIHJ = experiment: Minimum Inhibitory Concentration, Escherichia coli NIHJ; settings: read-out: Minimum Inhibitory Concentration
Description: as §1

[3] = tested on: Klebsiella pneumoniae 602; experiment: Minimum Inhibitory Concentration, Klebsiella pneumoniae 602
Description: as §1

Proteus vulgaris HX 19 = experiment: Minimum Inhibitory Concentration, Proteus vulgaris HX 19; settings: HX19; Proteus vulgaris HX 19; read-out: Minimum Inhibitory Concentration
Description: as §1

[4] = tested on: Pseudomonas aeruginosa 104; experiment: Minimum Inhibitory Concentration, Pseudomonas aeruginosa 104; settings: Pseudomonas aeruginosa 104; read-out: Minimum Inhibitory Concentration
Description: as §1

Serratia No. 72 = experiment: Minimum Inhibitory Concentration, Serratia No. 72
Description: as §1

[5] = tested on: Enterobacter aerogeneus No. 75; experiment: Minimum Inhibitory Concentration, Enterobacter aerogeneus No. 75; settings: Enterobacter aerogeneus No. 75; read-out: Minimum Inhibitory Concentration
Description: as §1

[6] = Klebsiella pneumoniae, 602, Klebsiella pneumoniae 602, read-out: Minimum Inhibitory Concentration

| SMILES | MIC [1] [µg/mL] | MIC [2] [µg/mL] | MIC (Escherichia coli NIHJ; Escherichia coli NIHJ) [µg/mL] | MIC [3, 6] [µg/mL] | MIC (Proteus vulgaris HX 19) [µg/mL] | MIC [4] [µg/mL] | MIC (Serratia No. 72) [µg/mL] | MIC [5] [µg/mL] | MIC (Escherichia coli NIHJ; Escherichia coli) [µg/mL] | MIC ([3]; Klebsiella pneumoniae, 602, read-out: Minimum Inhibitory Concentration) [µg/mL] |
| --- | --- | --- | --- | --- | --- | --- | --- | --- | --- | --- |
| CC(=O)OCC1=C(C(=O)O)N2C(=O)C(NC(=O)[C@H](NC(=O)c3cnc(O)nc3O)c3ccc(O)cc3)C2SC1 (some centres unmarked) [Example 119] | 0.39 (≈ 0.697 µM) | 6.25 (≈ 11.2 µM) | 6.25 (≈ 11.2 µM) | 25 (≈ 44.7 µM) | 0.39 (≈ 0.697 µM) | 6.25 (≈ 11.2 µM) | > 200 | 25 (≈ 44.7 µM) | – | – |
| CC(=O)OCC1=C(C(=O)O)N2C(=O)C(NC(=O)[C@H](NC(=O)c3cnc4cccnc4c3O)c3ccc(O)cc3)C2SC1 (stereo partly drawn) [Example 120, 7-[D-α-(4-Hydroxy-1,5-naphthyridine-3-carbonamido)-α-hydroxyphenylacetamido]cephalosporanic Acid] | 0.78 (≈ 1.31 µM) | 6.25 (≈ 10.5 µM) | – | – | 0.39 (≈ 0.657 µM) | 6.25 (≈ 10.5 µM) | 50 (≈ 84.2 µM) | 6.25 (≈ 10.5 µM) | 3.13 (≈ 5.27 µM) | 1.56 (≈ 2.63 µM) |
| CC(=O)OCC1=C(C(=O)O)N2C(=O)C(NC(=O)[C@H](NC(=O)c3cnc4cccnc4c3O)c3ccc(O)c(Cl)c3)C2SC1 (some centres unmarked) [Example 122] | 0.78 (≈ 1.24 µM) | 6.25 (≈ 9.95 µM) | 3.13 (≈ 4.98 µM) | 3.13 (≈ 4.98 µM) | 0.39 (≈ 0.621 µM) | 6.25 (≈ 9.95 µM) | 50 (≈ 79.6 µM) | 6.25 (≈ 9.95 µM) | – | – |
| CC(=O)OCC1=C(C(=O)O)N2C(=O)C(NC(=O)[C@H](NC(=O)c3cnc4nc(C)ccc4c3O)c3ccc(O)cc3)C2SC1 (some centres unmarked) [Example 123] | 0.78 (≈ 1.28 µM) | 6.25 (≈ 10.3 µM) | 6.25 (≈ 10.3 µM) | 3.13 (≈ 5.15 µM) | 0.78 (≈ 1.28 µM) | 6.25 (≈ 10.3 µM) | 100 (≈ 165 µM) | 12.5 (≈ 20.6 µM) | – | – |
| CC(=O)OCC1=C(C(=O)O)N2C(=O)C(NC(=O)[C@H](NC(=O)c3nnc4ccccc4c3O)c3ccc(O)cc3)C2SC1 (stereo partly drawn) [Example 124, 7-[D-α-(4-hydroxycinnoline-3-carbonamido)-α-p-hydrxyphenylacetamido]cephalosporanic acid] | 0.78 (≈ 1.31 µM) | 6.25 (≈ 10.5 µM) | 12.5 (≈ 21.1 µM) | 12.5 (≈ 21.1 µM) | 0.78 (≈ 1.31 µM) | 12.5 (≈ 21.1 µM) | 100 (≈ 168 µM) | 25 (≈ 42.1 µM) | – | – |
| Cc1nnc(SCC2=C(C(=O)O)N3C(=O)C(NC(=O)[C@H](NC(=O)c4cnccc4O)c4ccc(O)cc4)C3SC2)s1 (stereo partly drawn) [Example 125, 7-[D-α-(4-Hydroxypyridine-3-carbonamido)-α-p-hydroxyphenylacetamido]-3-(2-methyl-1,3,4-thiadiazol-5-yl)thiomethyl-3-cephem-4-carboxylic Acid] | 0.39 (≈ 0.634 µM) | 6.25 (≈ 10.2 µM) | 6.25 (≈ 10.2 µM) | 6.25 (≈ 10.2 µM) | 0.1 (≈ 0.163 µM) | 12.5 (≈ 20.3 µM) | 50 (≈ 81.3 µM) | 12.5 (≈ 20.3 µM) | – | – |
| Cc1nnc(SCC2=C(C(=O)O)N3C(=O)C(NC(=O)[C@H](NC(=O)c4cnc5cccnc5c4O)c4ccc(O)cc4)C3SC2)s1 (some centres unmarked) [Example 129] | 0.78 (≈ 1.17 µM) | 3.13 (≈ 4.7 µM) | 1.56 (≈ 2.34 µM) | 1.56 (≈ 2.34 µM) | 0.1 (≈ 0.15 µM) | 3.13 (≈ 4.7 µM) | 12.5 (≈ 18.8 µM) | 3.13 (≈ 4.7 µM) | – | – |
| O=C(O)C1=C(CSc2nncs2)CSC2C(NC(=O)[C@H](NC(=O)c3cnc4cccnc4c3O)c3ccc(O)cc3)C(=O)N12 (some centres unmarked) [Example 130] | 0.78 (≈ 1.2 µM) | 3.13 (≈ 4.8 µM) | 1.56 (≈ 2.39 µM) | 1.56 (≈ 2.39 µM) | 0.1 (≈ 0.153 µM) | 3.13 (≈ 4.8 µM) | 12.5 (≈ 19.2 µM) | 3.13 (≈ 4.8 µM) | – | – |

Second part, led by results:

| MIC [1] [µg/mL] | MIC [2] [µg/mL] | MIC (Escherichia coli NIHJ; Escherichia coli NIHJ) [µg/mL] | MIC [3, 6] [µg/mL] | MIC (Proteus vulgaris HX 19) [µg/mL] | MIC [4] [µg/mL] | MIC (Serratia No. 72) [µg/mL] | MIC [5] [µg/mL] | SMILES | MIC (Escherichia coli NIHJ; Escherichia coli) [µg/mL] | MIC ([3]; Klebsiella pneumoniae, 602, read-out: Minimum Inhibitory Concentration) [µg/mL] |
| --- | --- | --- | --- | --- | --- | --- | --- | --- | --- | --- |
| 0.39 (≈ 0.651 µM) | 6.25 (≈ 10.4 µM) | 6.25 (≈ 10.4 µM) | 12.5 (≈ 20.9 µM) | 0.2 (≈ 0.334 µM) | 6.25 (≈ 10.4 µM) | 100 (≈ 167 µM) | 12.5 (≈ 20.9 µM) | Cn1nnnc1SCC1=C(C(=O)O)N2C(=O)C(NC(=O)[C@H](NC(=O)c3cnccc3O)c3ccc(O)cc3)C2SC1 (stereo partly drawn) [Example 126, 7-[D-α-(4-Hydroxypyridine-3-carbonamido)-α-p-hydroxyphenylacetamido]-3-(1-methyltetrazol-5-yl)thiomethyl-3-cephem-4-carboxylic acid] | – | – |
| 0.39 (≈ 0.633 µM) | 6.25 (≈ 10.2 µM) | 6.25 (≈ 10.2 µM) | 6.25 (≈ 10.2 µM) | 0.2 (≈ 0.325 µM) | 6.25 (≈ 10.2 µM) | 50 (≈ 81.2 µM) | 12.5 (≈ 20.3 µM) | Cc1nnc(SCC2=C(C(=O)O)N3C(=O)C(NC(=O)[C@H](NC(=O)c4ccnnc4O)c4ccc(O)cc4)C3SC2)s1 (some centres unmarked) [Example 127] | – | – |
| 0.39 (≈ 0.65 µM) | 6.25 (≈ 10.4 µM) | 6.25 (≈ 10.4 µM) | 6.25 (≈ 10.4 µM) | 0.39 (≈ 0.65 µM) | 6.25 (≈ 10.4 µM) | 50 (≈ 83.4 µM) | 12.5 (≈ 20.8 µM) | Cn1nnnc1SCC1=C(C(=O)O)N2C(=O)C(NC(=O)[C@H](NC(=O)c3ccnnc3O)c3ccc(O)cc3)C2SC1 (some centres unmarked) [Example 128] | – | – |
| 0.78 (≈ 1.2 µM) | 3.13 (≈ 4.82 µM) | 1.56 (≈ 2.4 µM) | 0.78 (≈ 1.2 µM) | 0.1 (≈ 0.154 µM) | 3.13 (≈ 4.82 µM) | 12.5 (≈ 19.2 µM) | 3.13 (≈ 4.82 µM) | Cn1nnnc1SCC1=C(C(=O)O)N2C(=O)C(NC(=O)[C@H](NC(=O)c3cnc4cccnc4c3O)c3ccc(O)cc3)C2SC1 (some centres unmarked) [Example 131] | – | – |
| 0.78 (≈ 1.14 µM) | 3.13 (≈ 4.58 µM) | 3.13 (≈ 4.58 µM) | 1.56 (≈ 2.28 µM) | 0.1 (≈ 0.146 µM) | 6.25 (≈ 9.14 µM) | 25 (≈ 36.5 µM) | 3.13 (≈ 4.58 µM) | Cn1nnnc1SCC1=C(C(=O)O)N2C(=O)C(NC(=O)[C@H](NC(=O)c3cnc4cccnc4c3O)c3ccc(O)c(Cl)c3)C2SC1 (some centres unmarked) [Example 132] | – | – |
